Assay results published in patent US8455497B2, “Inhibitors of aspartyl protease” (Vertex Pharmaceuticals Incorporated, priority 1999, dated 2013).

Each molecule was assayed on HIV-1 (strain IIIB) (assay: Antiviral activity assay in MT4 cells (propidium iodide based)). Conditions: Human immunodeficiency virus 1, IIIB; wild type HIV-1 virus, MT4 cells; read-out: Wildtype virus - IC50.
Type: cell-based
Procedure: Antiviral Activity Assay in MT4 Cells
Aliquots of the test compounds were serially diluted in medium (RPMI 1640, 10% fetal calf serum (FCS), and gentamycin) in 96-well plates (Costar 3598) using a Cetus Pro/Pette. Exponentially growing MT4 cells were harvested and centrifuged at 1000 rpm for 10 min in a Jouan centrifuge (model CR 4 12). Cell pellets were resuspended in fresh medium (RPMI 1640, 20% FCS, 20% IL-2, and gentamycin) to a density of 5×10^5 cells/ml. Cell aliquots were infected by the addition of HIV-1 (strain IIIB) diluted to give a viral multiplicity of infection of 100×TCID50. A similar cell aliquot was diluted with medium to provide a mock-infected control. Cell infection was allowed to proceed for 1 hr at 37° in a tissue culture incubator with humidified 5% CO2 atmosphere. After the 1 hr incubation the virus/cell suspensions were diluted 6-fold with fresh medium, and 125 μl of the cell suspension was added to each well of the plate containing pre-diluted compound. Plates were then placed in a tissue culture incubator with humidified 5% CO2 for 5 days. At the end of the incubation period, 27 μl of 5% Nonidet-40 was added to each well of the incubation plate. After thorough mixing with a Costar multitip pipetter, 60 μl of the mixture was transferred to filter-bottomed 96-well plates. The plates were analyzed in an automated assay instrument (Screen Machine, Idexx Laboratories). The assay makes use of a propidium iodide dye to estimate the DNA content of each well.
The anti-viral potency in MT-4 cells of the compounds set forth in Tables 1 and 2 was determined using the above technique.

Compound | IC50 [nM]
CC(C)CN(C[C@@H](O)[C@H](Cc1ccc(OCCCN)cc1)NC(=O)OC1CO[C@H]2OCC[C@@H]12)S(=O)(=O)c1ccc2c(c1)OCO2 (stereo in doubt) [Compound 222, (3R,3aS,6aR)-hexahydrofuro[2,3-b]furan-3-yl (1S,2R)-1-[4-(3-aminopropoxy)benzyl]-3-[(1,3-benzodioxol-5-ylsulfonyl)(isobutyl)amino]-2-hydroxypropylcarbamate] | 10 to 100

Same assay, conditions: Human immunodeficiency virus 1, MT4, 120 h; MT-4 cells, HIV-1 strain IIIB, 5 days; read-out: IC50 (Antiviral Activity of Compounds of the Invention)

Compound | IC50 [nM]
CC(C)CN(C[C@@H](O)[C@H](Cc1ccc(OCCN2CCOCC2)cc1)NC(=O)OC(C)(C)C)S(=O)(=O)c1ccc2c(c1)OCO2 [Compound 17, Boc Methylenedioxybenzenesulfonamide Ethylmorpholine Tethered Product] | > 100
COCCN(CCOC)CCOc1ccc(C[C@H](NC(=O)OC(C)(C)C)[C@H](O)CN(CC(C)C)S(=O)(=O)c2ccc3c(c2)OCO3)cc1 [Compound 18, Boc Methylenedioxybenzenesulfonamide Bis-Methoxyethylamine Tethered Product] | 10 to 100
CC(C)CN(C[C@@H](O)[C@H](Cc1ccc(OCCCN2CCOCC2)cc1)NC(=O)OC(C)(C)C)S(=O)(=O)c1ccc2c(c1)OCO2 [Compound 20, Boc Methylenedioxybenzenesulfonamide Propylmorpholine Tethered Product] | 10 to 100
CC(C)CN(C[C@@H](O)[C@H](Cc1ccc(OCC(=O)N2CCOCC2)cc1)NC(=O)OC(C)(C)C)S(=O)(=O)c1ccc2c(c1)OCO2 [Compound 21, Boc methylenedioxybenzenesulfonamide Acetylmorpholine Tethered Product] | 10 to 100
CC(C)CN(C[C@@H](O)[C@H](Cc1ccc(OCc2ccccc2)cc1)NC(=O)O[C@H]1CO[C@H]2OCC[C@H]21)S(=O)(=O)c1ccc2nc(N)sc2c1 [Compound 44, Bis-THF Benzothiazolesulfonamide Benzyl Ether] | < 1
CC(C)CN(C[C@@H](O)[C@H](Cc1ccc(OCCN2CCOCC2)cc1)NC(=O)O[C@H]1CO[C@H]2OCC[C@H]21)S(=O)(=O)c1ccc2c(c1)OCO2 [Compound 48, Bis-THF Methylenedioxybenzenesulfonamide Ethylmorpholine Tethered Product] | 1 to 10
CC(C)CN(C[C@@H](O)[C@H](Cc1ccc(OCCCN2CCOCC2)cc1)NC(=O)O[C@H]1CO[C@H]2OCC[C@H]21)S(=O)(=O)c1ccc2c(c1)OCO2 [Compound 49, Bis-THF Methylenedioxybenzenesulfonamide Propylmorpholine Tethered Product] | 1 to 10
CC(C)CN(C[C@@H](O)[C@H](Cc1ccc(OCC(=O)N2CCOCC2)cc1)NC(=O)O[C@H]1CO[C@H]2OCC[C@H]21)S(=O)(=O)c1ccc2c(c1)OCO2 [Compound 50, Bis-THF Methylenedioxybenzenesulfonamide Acetylmorpholine Tethered Product] | 10 to 100
COCCN(CCOC)CCOc1ccc(C[C@H](NC(=O)O[C@H]2CO[C@H]3OCC[C@H]32)[C@H](O)CN(CC(C)C)S(=O)(=O)c2ccc3c(c2)OCO3)cc1 [Compound 51, Bis-THF Methylenedioxybenzenesulfonamide Bis-Methoxyethylamine Tethered Product] | 1 to 10
Cc1cc(C)n(COc2ccc(C[C@H](NC(=O)O[C@H]3CO[C@H]4OCC[C@H]43)[C@H](O)CN(CC(C)C)S(=O)(=O)c3ccc4c(c3)OCO4)cc2)n1 [Compound 56, Bis-THF Methylenedioxybenzenesulfonamide 1-methyl-3,5-dimethylpyrazole Tethered Product] | 10 to 100
CC(C)CN(C[C@@H](O)[C@H](Cc1ccc(OCCn2cccn2)cc1)NC(=O)O[C@H]1CO[C@H]2OCC[C@H]21)S(=O)(=O)c1ccc2c(c1)OCO2 [Compound 57, Bis-THF Methylenedioxybenzenesulfonamide Ethylpyrazole Tethered Product] | 1 to 10

Same assay, conditions: MT-4 cells, HIV-1 strain IIIB, 5 days; read-out: IC50 (Antiviral Activity of Compounds of the Invention)

Compound | IC50 [nM]
CC(C)CN(CC(O)C(Cc1ccc(OCCN2CCOCC2)cc1)NC(=O)OC(C)(C)C)S(=O)(=O)c1ccc(N)cc1 (stereo not drawn) [Compound 10] | > 100
CC(C)CN(CC(O)C(Cc1ccc(OCCCN2CCOCC2)cc1)NC(=O)OC(C)(C)C)S(=O)(=O)c1ccc(N)cc1 (stereo not drawn) [Compound 11] | > 100
COCCN(CCOC)CCOc1ccc(CC(NC(=O)OC(C)(C)C)C(O)CN(CC(C)C)S(=O)(=O)c2cccc(N)c2)cc1 (stereo not drawn) [Compound 13] | > 100
CC(C)CN(CC(O)C(Cc1ccc(OCCN2CCOCC2)cc1)NC(=O)OC(C)(C)C)S(=O)(=O)c1cccc(N)c1 (stereo not drawn) [Compound 15] | > 100
CC(C)CN(CC(O)C(Cc1ccc(OCCCN2CCOCC2)cc1)NC(=O)OC(C)(C)C)S(=O)(=O)c1cccc(N)c1 (stereo not drawn) [Compound 16] | > 100
COCCN(CCOC)CCOc1ccc(CC(NC(=O)OC2CCOC2)C(O)CN(CC(C)C)S(=O)(=O)c2cccc(N)c2)cc1 (stereo not drawn) [Compound 22, bis-THF m-aminophenylsulfonamide benzyl ether] | 10 to 100
CC(C)CN(CC(O)C(Cc1ccc(OCCN2CCOCC2)cc1)NC(=O)OC1CCOC1)S(=O)(=O)c1cccc(N)c1 (stereo not drawn) [Compound 23] | 10 to 100
COCCN(CCOC)CCOc1ccc(CC(NC(=O)OC2CCOC2)C(O)CN(CC(C)C)S(=O)(=O)c2ccc3c(c2)OCO3)cc1 (stereo not drawn) [Compound 24] | 10 to 100
COCCN(CCOC)CCOc1ccc(CC(NC(=O)OC2COCOC2)C(O)CN(CC(C)C)S(=O)(=O)c2cccc(N)c2)cc1 (stereo not drawn) [Compound 25] | 10 to 100
CC(C)CN(CC(O)C(Cc1ccc(OCc2ccccc2)cc1)NC(=O)OC1COC2OCCC12)S(=O)(=O)c1ccc(N)cc1 (stereo not drawn) [Compound 26] | < 1
COCCN(CCOC)CCOc1ccc(CC(NC(=O)OC2COC3OCCC23)C(O)CN(CC(C)C)S(=O)(=O)c2ccc(N)cc2)cc1 (stereo not drawn) [Compound 27] | > 100
CC(C)CN(CC(O)C(Cc1ccc(OCCN2CCOCC2)cc1)NC(=O)OC1COC2OCCC12)S(=O)(=O)c1ccc(N)cc1 (stereo not drawn) [Compound 29] | 10 to 100
CC(C)CN(CC(O)C(Cc1ccc(OCCCN2CCOCC2)cc1)NC(=O)OC1COC2OCCC12)S(=O)(=O)c1ccc(N)cc1 (stereo not drawn) [Compound 30] | 10 to 100
CC(C)CN(CC(O)C(Cc1ccc(OCc2ccccn2)cc1)NC(=O)OC1COC2OCCC12)S(=O)(=O)c1ccc(N)cc1 (stereo not drawn) [Compound 31] | 1 to 10
CC(C)CN(CC(O)C(Cc1ccc(O)cc1)NC(=O)OC1COC2OCCC12)S(=O)(=O)c1ccc(N)cc1 (stereo not drawn) [Compound 32] | 10 to 100
Cc1cc(COc2ccc(CC(NC(=O)OC3COC4OCCC34)C(O)CN(CC(C)C)S(=O)(=O)c3ccc(N)cc3)cc2)no1 (stereo not drawn) [Compound 33] | 10 to 100
COCCN(CCOC)CCOc1ccc(CC(NC(=O)OC2COC3OCCC23)C(O)CN(CC(C)C)S(=O)(=O)c2cccc(N)c2)cc1 (stereo not drawn) [Compound 34] | > 100
Cc1cc(COc2ccc(CC(NC(=O)OC3COC4OCCC34)C(O)CN(CC(C)C)S(=O)(=O)c3cccc(N)c3)cc2)no1 (stereo not drawn) [Compound 35] | 10 to 100
CC(C)CN(CC(O)C(Cc1ccc(OCc2ccccn2)cc1)NC(=O)OC1COC2OCCC12)S(=O)(=O)c1cccc(N)c1 (stereo not drawn) [Compound 36] | 10 to 100
CC(C)CN(CC(O)C(Cc1ccc(OCCN2CCOCC2)cc1)NC(=O)OC1COC2OCCC12)S(=O)(=O)c1cccc(N)c1 (stereo not drawn) [Compound 37] | 10 to 100
Cc1cc(S(=O)(=O)N(CC(C)C)CC(O)C(Cc2ccc(OCc3ccccc3)cc2)NC(=O)OC2COC3OCCC23)ccc1O (stereo not drawn) [Compound 38] | < 1
CC(C)CN(CC(O)C(Cc1ccc(OCc2ccccc2)cc1)NC(=O)OC1COC2OCCC12)S(=O)(=O)c1ccc2c(c1)OCO2 (stereo not drawn) [Compound 46, Bis-THF Methylenedioxybenzenesulfonamide Benzyl Ether] | < 1
COCCN(CCOC)CCOc1ccc(CC(NC(=O)OC(C)(C)C)C(O)CN(CC(C)(C)CCC#N)S(=O)(=O)c2ccc(N)cc2)cc1 (stereo not drawn) [Compound 67] | > 100
COCCN(CCOC)CCOc1ccc(CC(NC(=O)OC(C)(C)C)C(O)CN(CC(C)(C)CCC#N)S(=O)(=O)c2ccc3c(c2)OCO3)cc1 (stereo not drawn) [Compound 68] | > 100
COCCN(CCOC)CCOc1ccc(CC(NC(=O)OC2CCOC2)C(O)CN(CC(C)(C)CCC#N)S(=O)(=O)c2ccc3c(c2)OCO3)cc1 (stereo not drawn) [Compound 69] | > 100
COCCN(CCOC)CCOc1ccc(CC(NC(=O)OC2CCOC2)C(O)CN(CC(C)(C)CCC#N)S(=O)(=O)c2ccc(N)cc2)cc1 (stereo not drawn) [Compound 70] | > 100
CC(C)(CCC#N)CN(CC(O)C(Cc1ccc(OCc2ccccc2)cc1)NC(=O)OC1COC2OCCC12)S(=O)(=O)c1ccc(N)cc1 (stereo not drawn) [Compound 71] | 1 to 10
CC(C)(CCC#N)CN(CC(O)C(Cc1ccc(OCc2ccccc2)cc1)NC(=O)OC1COC2OCCC12)S(=O)(=O)c1ccc2c(c1)OCO2 (stereo not drawn) [Compound 72] | 1 to 10
COCCN(CCOC)CCOc1ccc(CC(NC(=O)OC2COC3OCCC23)C(O)CN(CC(C)(C)CCC#N)S(=O)(=O)c2ccc3c(c2)OCO3)cc1 (stereo not drawn) [Compound 73] | 10 to 100
COCCN(CCOC)CCOc1ccc(CC(NC(=O)OC2COC3OCCC23)C(O)CN(CC(C)(C)CCC#N)S(=O)(=O)c2ccc(N)cc2)cc1 (stereo not drawn) [Compound 74] | > 100
